Laboratory results: patent publication US20250017910A1, “2-Thioxothiazolidine-4-One Derivatives And Their Uses” (Prosetta Biosciences, Inc., priority 2023, published 2025)

Molecular target: T1, alpha syn aggregates (Homo sapiens, UniProt P37840)
T1 construct: expressed in transfected cells; host or cells: NLF cells, Tet-on inducible expression
Assay: Assay for Methamphetamine Addiction: alpha syn aggregates in NLF cells with or without amphetamine
Type: cell-based
Details: FIG. 1
From the text: FIG. 1 illustrates the average number of a syn aggregates per cell.
NLF cells were transfected with alpha synuclein behind a Tet-on promoter and induced to express alpha syn, resulting in the appearance of alpha syn aggregates. […] Aggregates were counted in ten randomly chosen fields and highest 3 in all conditions were quantified.

Row | Structure (SMILES) | amphetamine mediated increase of alpha syn aggregates (0.5 mM amphetamine and 1 μM of compound) | number of alpha syn aggregates (treatment with 1 μM of compound) | number of alpha syn aggregates (treatment with 0.5 mM amphetamine)
1 | CN1CCN(c2ccc(-c3ccc(/C=C4\SC(=S)N(CCc5ccccc5)C4=O)o3)cc2)CC1 [Compound 13] | eliminated the amphetamine mediated increase of aggregates | reduced the number of aggregates | 
2 | CC(N)Cc1ccccc1 (stereo not drawn) [amphetamine, reference compound] |  |  | increased the number of aggregates
